Experimental data: patent US20250263426A1, “PDE4B INHIBITOR AND USE THEREOF” (Xizang Haisco Pharmaceutical Co., Ltd., priority 2022, published 2025)
Where two headings read alike, the source gives them in different places.

Legend:
PDE4B2 = PDE4B2 (Homo sapiens (Human), UniProt Q07343); assay: Effect of compounds on PDE4B2 activity (fluorescence polarization kit)
Description: [formula] • I∥ (S535): fluorescence intensity in parallel direction • I⊥ (P535): fluorescence intensity in perpendicular direction • G: G factor=1

PDE4D2 = PDE4D2 (Homo sapiens (Human), UniProt Q08499); assay: Effect of compounds on PDE4D2 activity (fluorescence polarization kit); type: biochemical
Experimental: FP was usually represented by mP value.
[formula] • I∥ (S520): fluorescence intensity in parallel direction • I⊥ (P520): fluorescence intensity in perpendicular direction • G: G factor=1
[formula] • mP(sample): mP of the test compound in a reaction well • mP(negative control): mP in the negative control well • mP(positive control): mP in the positive control well
According to the calculated inhibition rate at each concentration, the IC50 value of each compound was calculated by GraphPad Prism 8 software.

[1] = system: human peripheral blood mononuclear cells (TNF-α release); assay: Inhibition of LPS-induced TNF-α release from human peripheral blood mononuclear cells in vitro; type: cell-based; conditions: 4 h; for IC50: read-out: Re IC50
Experimental: 5. Detection of Inhibitory Activity of Compounds on the Release of Tumor Necrosis Factor-α (TNF-α) from Human Peripheral Blood Mononuclear Cells Induced by Lipopolysaccharide (LPS) In Vitro
The concentration of hPBMC cells was adjusted to 0.25×10^6 cells/mL with RPMI1640 medium and inoculated into a 96-well plate in an amount of 50000 cells per well. […] Incubation was carried out for 4 h in an incubator at 37° C. and 5% CO2. The cell supernatant was collected, and the content of TNF-α in the supernatant sample was detected by human TNF-α Elisa quantitative test kit (Sino Biological, Cat #KIT10602). The IC50 value was calculated using GraphPad Prism software.

[2] = relative IC50, hPBMC, 100 ng/mL LPS

Sequence of PDE4B2 (Q07343 other isoform, or with tags, fused parts or gaps): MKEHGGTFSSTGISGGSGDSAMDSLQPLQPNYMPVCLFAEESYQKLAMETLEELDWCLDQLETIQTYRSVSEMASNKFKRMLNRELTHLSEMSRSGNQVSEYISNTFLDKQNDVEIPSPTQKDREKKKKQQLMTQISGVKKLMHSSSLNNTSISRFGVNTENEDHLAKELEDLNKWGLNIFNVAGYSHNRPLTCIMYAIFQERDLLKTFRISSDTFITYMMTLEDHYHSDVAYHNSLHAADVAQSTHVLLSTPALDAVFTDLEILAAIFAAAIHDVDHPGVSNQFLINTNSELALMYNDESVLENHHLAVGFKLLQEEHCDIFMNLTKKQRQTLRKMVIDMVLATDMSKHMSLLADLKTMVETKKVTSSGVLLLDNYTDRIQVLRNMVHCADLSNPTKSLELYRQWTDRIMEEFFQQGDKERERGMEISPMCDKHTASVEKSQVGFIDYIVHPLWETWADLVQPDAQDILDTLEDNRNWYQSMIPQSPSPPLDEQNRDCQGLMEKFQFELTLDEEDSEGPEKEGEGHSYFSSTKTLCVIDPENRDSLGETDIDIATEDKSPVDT
Sequence of PDE4D2 (Q08499 303-809, change not shown): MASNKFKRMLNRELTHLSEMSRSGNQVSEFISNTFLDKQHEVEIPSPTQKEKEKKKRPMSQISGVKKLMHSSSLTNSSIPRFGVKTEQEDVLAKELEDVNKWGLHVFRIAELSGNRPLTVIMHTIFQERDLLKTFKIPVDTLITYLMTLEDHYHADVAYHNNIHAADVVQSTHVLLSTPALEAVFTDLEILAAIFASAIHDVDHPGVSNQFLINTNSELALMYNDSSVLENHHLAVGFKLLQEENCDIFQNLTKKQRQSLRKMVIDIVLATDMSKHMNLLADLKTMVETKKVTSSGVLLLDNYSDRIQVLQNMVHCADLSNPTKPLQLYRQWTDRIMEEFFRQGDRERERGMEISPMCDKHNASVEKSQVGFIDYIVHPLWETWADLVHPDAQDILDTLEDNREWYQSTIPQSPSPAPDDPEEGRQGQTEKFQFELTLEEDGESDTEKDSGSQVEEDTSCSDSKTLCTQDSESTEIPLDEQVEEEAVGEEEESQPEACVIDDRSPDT

Row | IC50 (PDE4B2; read-out: PDE4B2 IC50) [nM] | IC50 (PDE4D2) [nM] | IC50 (PDE4B2) [nM] | SMILES | other results
1 | 10 to 50 | 50 to 100 |  | CCOc1cnc2c(c1)OC[C@H]1CN(c3nc4c(c(NC(C)(C)CNC(=O)OC)n3)[S@+]([O-])CC4)CCN21 [Compound 147-2] | 
2 | 10 to 50 | 50 to 100 |  | CC(C)(COC(N)=O)Nc1nc(N2CCN3c4ncc(C5CC5)cc4OC[C@H]3C2)nc2c1[S@+]([O-])CC2 [Compound 113-2] | 
3 | 10 to 50 | 50 to 100 |  | COC(=O)NCC(C)(C)Nc1nc(N2CCN3c4ncc(C)cc4OC[C@@H]3C2)nc2c1[S@+]([O-])CC2 [Compound 141-2] | 
4 | 10 to 50 | 10 to 50 |  | COC(=O)NCC(C)(C)Nc1nc(N2CCN3c4ncc(C)cc4OC[C@H]3C2)nc2c1[S@+]([O-])CC2 [Compound 141-1] | 
5 | 10 to 50 | 50 to 100 |  | CCOc1cnc2c(c1)OC[C@@H]1CN(c3nc4c(c(NC(C)(C)CNC(=O)OC)n3)[S@+]([O-])CC4)CCN21 [Compound 147-1] | 

The next lines start with the molecule.

Row | SMILES | IC50 (PDE4B2; read-out: PDE4B2 IC50) [nM] | IC50 (PDE4D2) [nM] | IC50 (PDE4B2) [nM] | other results
6 | COC(=O)NCC(C)(C)Nc1nc(N2C[C@H]3CC(c4ncc5c(n4)CC5)=C[C@H]3C2)nc2c1[S@+]([O-])CC2 [Compound 139-2] | 10 to 50 | 10 to 50 |  | 
7 | CC(C)(COC(N)=O)Nc1nc(N2CC=C(c3ncc4occc4n3)CC2)nc2c1[S@+]([O-])CC2 [Compound 136] |  | < 10 | < 10 | 
8 | Cc1cnc2c(c1)OC[C@@H]1CN(c3nc4c(c(NC(C)(C)COC(N)=O)n3)[S@+]([O-])CC4)CCN21 [Compound 142-1] | < 10 | 10 to 50 |  | 
9 | [O-][S@@+]1CCCc2nc(N3CCN(c4ncc(Cl)cn4)CC3)nc(NC3(CO)CCC3)c21 [Compound 12-2] | < 10 | 10 to 50 |  | 
10 | CC#Cc1cnc(C2=CCN(c3nc4c(c(NC5(COC(F)F)CCC5)n3)[S@+]([O-])CC4)CC2)nc1 [Compound 92-1] |  | < 10 |  | Max inhibition (%) ([1]; hPBMC, 100 ng/mL LPS): 69.72%; IC50 [1, 2]: < 10 nM
11 | C#Cc1cnc(N2CCN(c3nc4c(c(NC5(COC(N)=O)CCC5)n3)[S@+]([O-])CC4)CC2)nc1 [Compound 57] |  | 10 to 50 | < 10 | 
12 | N#CCC1(Nc2nc(N3CC=C(c4ncc(C5CC5)cn4)CC3)nc3c2[S@+]([O-])CC3)CCC1 [Compound 135] |  | < 10 | < 10 | 
13 | C#Cc1cnc(C2=CCN(c3nc4c(c(Nc5cccc(F)c5)n3)[S@@+]([O-])CC4)CC2)nc1 [Compound 36-2] | 10 to 50 | 10 to 50 |  | 
14 | O=S1(=O)CCCc2nc(N3CC=C(c4ncc(Cl)cn4)CC3)nc(NC3(CO)CCC3)c21 [Compound 54] |  |  | 50 to 100 | 
15 | CC(C)(CO)Nc1nc(N2CC=C(c3ncc(Cl)cn3)CC2)nc2c1[S+]([O-])CC2 (stereo not drawn) [Compound 31] |  | 10 to 50 | 10 to 50 | 
16 | CCOc1cnc2c(c1)OC[C@H]1CN(c3nc4c(c(NC(C)(C)COC(N)=O)n3)[S+]([O-])CC4)CCN21 (stereo partly drawn) [Compound 146-2] | 10 to 50 | 10 to 50 |  | 
17 | CC#Cc1cnc(C2=CCN(c3nc4c(c(NC(C)(C)COC(N)=O)n3)[S+]([O-])CC4)CC2)nc1 (single isomer, unassigned) [Compound 110-2] |  |  |  | Max inhibition (%) ([1]; hPBMC, 100 ng/mL LPS): 74.07%; IC50 [1, 2]: < 10 nM
18 | [O-][S@+]1CCCc2nc(N3C[C@H]4CN(c5ccc(Cl)cc5)C[C@H]4C3)nc(NC3(CO)CCC3)c21 [Compound 15-2] | < 10 | 10 to 50 |  | 
19 | CC(C)(COC(N)=O)Nc1nc(N2CC=C(c3ncc4c(n3)CC4)CC2)nc2c1[S@+]([O-])CC2 [Compound 132] |  | 10 to 50 | 10 to 50 | 
20 | Cc1cnc(C2=CCN(c3nc4c(c(NC(C)(C)COC(N)=O)n3)[S@+]([O-])CC4)CC2)nc1 [Compound 122] |  | 10 to 50 | 10 to 50 | 
21 | CC(C)c1cnc(C2=CCN(c3nc4c(c(NC(C)(C)COC(N)=O)n3)[S@+]([O-])CC4)CC2)nc1 [Compound 129] |  | 10 to 50 | < 10 | 
22 | CC(C)(COC(N)=O)Nc1nc(N2CCC=C(c3ncc(C4CC4)cn3)CC2)nc2c1[S@+]([O-])CC2 [Compound 137] |  | 10 to 50 | 10 to 50 | 
23 | CC(C)(COC(N)=O)Nc1nc(N2CCC=C(c3ncc(Cl)cn3)CC2)nc2c1[S@+]([O-])CC2 [Compound 102-1] |  |  |  | Max inhibition (%) ([1]; hPBMC, 100 ng/mL LPS): 99.73%; IC50 [1, 2]: 10 to 50 nM
24 | CC(C)(CO)Nc1nc(N2CC=C(c3ccc4c(c3)C[Si](C)(C)C4)CC2)nc2c1[S@+]([O-])CC2 [Compound 107] | 10 to 50 | 10 to 50 |  | 
25 | CC(C)(COC(N)=O)Nc1nc(N2CC=C(c3ncc4c(n3)CCC4)CC2)nc2c1[S@+]([O-])CC2 [Compound 125] |  | 10 to 50 | 10 to 50 | 
26 | CC#Cc1cnc2c(c1)OC[C@H]1CN(c3nc4c(c(NC(C)(C)COC(N)=O)n3)[S@+]([O-])CC4)CCN21 [Compound 112-2] | 10 to 50 | 50 to 100 |  | 
27 | CN1C[C@@H](Nc2nc(N3C[C@H]4CN(c5ccc6c(c5)CC6)C[C@H]4C3)nc3c2[S@+]([O-])CC3)CCC1=O [Compound 109-2] | 10 to 50 | 50 to 100 |  | 
28 | CCOc1cnc2c(c1)OC[C@@H]1CN(c3nc4c(c(NC(C)(C)COC(N)=O)n3)[S+]([O-])CC4)CCN21 (stereo partly drawn) [Compound 146-1] | 10 to 50 | < 10 |  | 

Row | SMILES | IC50 (PDE4B2; read-out: PDE4B2 IC50) [nM] | IC50 (PDE4D2) [nM] | IC50 (PDE4B2) [nM] | other results
29 | NC(=O)OCC1(Nc2nc(N3CCC(c4ncc(Cl)cn4)CC3)nc3c2[S@+]([O-])CC3)CCC1 [Compound 55] |  |  | 50 to 100 | 
30 | CC(C)(COC(N)=O)Nc1nc(N2CC=C(c3ncccn3)CC2)nc2c1[S@+]([O-])CC2 [Compound 118] |  | 10 to 50 | 10 to 50 | 
31 | CC#Cc1cnc(C2=CCN(c3nc4c(c(NC5(COC(F)F)CCC5)n3)[S@@+]([O-])CC4)CC2)nc1 [Compound 92-2] |  | 10 to 50 |  | 
32 | [O-][S@+]1CCc2nc(N3CC4CN(c5ccc6c(c5)CC6)CC4C3)nc(Nc3cccc(S(F)(F)(F)(F)F)c3)c21 (stereo partly drawn) [Compound 75-1] | 10 to 50 | 10 to 50 |  | 
33 | [O-][S@@+]1CCCc2nc(N3C[C@H]4CN(c5ncc(Cl)cn5)C[C@H]4C3)nc(NC3(CO)CCC3)c21 [Compound 14-1] | 10 to 50 | 10 to 50 |  | 
34 | NC(=O)OCC1(Nc2nc(N3C[C@H]4CN(c5ccc6c(c5)CC6)C[C@H]4C3)nc3c2[S@+]([O-])CC3)CCC1 [Compound 58] |  | 10 to 50 | < 10 | 
35 | [O-][S@+]1CCc2nc(N3CC=C(c4ncc(Cl)cn4)CC3)nc(NC3(CO)CCCC3)c21 [Compound 30] |  | < 10 | < 10 | 
36 | O=C1CCCc2nc(N3CC4=C(CN(c5ncc(Cl)cn5)C4)C3)nc(NC3(CO)CCC3)c21 [Compound 19-1] | < 10 | 10 to 50 |  | 
37 | [O-][S@@+]1CCCc2nc(N3CCC=C(c4ccc(Cl)cc4)CC3)nc(NC3(CO)CCC3)c21 [Compound 16-2] | 10 to 50 | 10 to 50 |  | 
38 | [O-][S@@+]1CCCc2nc(N3C[C@H]4CN(c5ccc6c(c5)CC6)C[C@H]4C3)nc(NC3(CO)CCC3)c21 [Compound 13-2] | < 10 | 10 to 50 |  | 
39 | CC(C)(COC(N)=O)Nc1nc(N2CC=C(c3ncc(C4CC4)cn3)C2)nc2c1[S@+]([O-])CC2 [Compound 116] |  | 50 to 100 | 10 to 50 | 
40 | COc1cnc(C2=CCN(c3nc4c(c(NC(C)(C)COC(N)=O)n3)[S@+]([O-])CC4)CC2)nc1 [Compound 124] |  | 10 to 50 | 10 to 50 | 
41 | CC(C)(COC(N)=O)Nc1nc(N2CC=C(c3ncc(C(F)F)cn3)CC2)nc2c1[S@+]([O-])CC2 [Compound 130] |  | 10 to 50 | 10 to 50 | 
42 | [O-][S@@+]1CCCc2nc(N3CCC=C(c4ncc(Cl)cn4)CC3)nc(NC3(CO)CCC3)c21 [Compound 17-2] | < 10 | 10 to 50 |  | 
43 | C#Cc1ccc(C2=CCN(c3nc4c(c(NC5([C@@H](C)O)CCC5)n3)[S@+]([O-])CC4)CC2)nc1 [Compound 95-1] | < 10 | < 10 |  | 
44 | CCOc1cnc(C2=CCN(c3nc4c(c(NC(C)(C)COC(N)=O)n3)[S@+]([O-])CC4)CC2)nc1 [Compound 128] |  | < 10 | < 10 | 
45 | C#Cc1ccc(C2=CCN(c3nc4c(c(NC5([C@H](C)O)CCC5)n3)[S@@+]([O-])CC4)CC2)nc1 [Compound 95-4] | < 10 | < 10 |  | 
46 | CC(C)(COC(N)=O)Nc1nc(N2CC=C(c3ccc4c(c3)C[Si](C)(C)C4)CC2)nc2c1[S@+]([O-])CC2 [Compound 108] |  | 10 to 50 | 10 to 50 | 
47 | NC(=O)OCC1(Nc2nc(N3CC=C(c4ncc(C5CC5)cn4)CC3)nc3c2[S@+]([O-])CC3)CCC1 [Compound 47] |  | < 10 |  | Max inhibition (%) ([1]; hPBMC, 100 ng/mL LPS): 80.45%; IC50 [1, 2]: < 10 nM
48 | CC#Cc1cnc(C2=CCN(c3nc4c(c(NC(C)(C)COC(N)=O)n3)[S+]([O-])CC4)CC2)nc1 (single isomer, unassigned) [Compound 110-1] |  |  |  | Max inhibition (%) ([1]; hPBMC, 100 ng/mL LPS): 88.09%; IC50 [1, 2]: < 10 nM
49 | CC(C)(COC(N)=O)Nc1nc(N2CCC=C(c3ncc(Cl)cn3)CC2)nc2c1[S@@+]([O-])CC2 [Compound 102-2] |  |  |  | Max inhibition (%) ([1]; hPBMC, 100 ng/mL LPS): 87.54%; IC50 [1, 2]: < 10 nM
50 | C#Cc1cnc(C2=CCN(c3nc4c(c(NC5(c6ncc[nH]6)CCC5)n3)[S@+]([O-])CC4)CC2)nc1 [Compound 37] |  |  |  | IC50 ([1]; Homo sapiens, PBMC): 10 to 50 nM; Emax ([1]; Homo sapiens, PBMC, hPBMC, 100 ng/mL LPS, read-out: Max inhibition (%)): 78.3%
